US20170008888A1 (KYORIN PHARMACEUTICAL CO., LTD., priority 2014, published 2017)
Like-named read-outs stand apart in the source and are kept apart here.

Tests used:
Assay type in all cases: binding
[1] = molecular target: T1, BRD4 bromodomain domain I [BRD4(1)] (Homo sapiens, UniProt O60885); test: BRD4 bromodomain domain 1 inhibition assay (TR-FRET); conditions: screening concentration 10 μM
T1 construct: BRD4 bromodomain domain I [BRD4(1)]; purchased Cayman Chemicals
Method in brief: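 0.5% DMSO, in triplicate, using Cayman BRD4(1) TR-FRET protocol with slight modification. 670/620 nm ratio normalized to 10 μM JQ1, with DMSO control set as 0% inhibition.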

JAK1 = molecular target: T2, JAK1 (Homo sapiens, UniProt P23458); test: Probe-based (AX9989) kinase profiling in Jurkat lysate: JAK1; conditions: for inhibition at 0.1 µM: screening concentration 0.1 μM; for inhibition at 10 µM: screening concentration 10 μM
T2 construct: screened for activity against several kinases in Jurkat cells; endogenous in cells; host or cells: Jurkat cell lysate
Method in brief: (§1)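 Read-out: LC/MS intensity of desthiobiotinylated kinase active-site peptides, percent inhibition normalized to no-compound lysate. Jurkat lysate with 20 mM MnCl2 received compound for 15 min at room temperature, then 5 μM AX9989 probe; duplicates.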

TAO2 = molecular target: T3, TAO2 (Homo sapiens, UniProt Q9UL54); test: Probe-based (AX9989) kinase profiling in Jurkat lysate: TAO2; conditions: for inhibition at 0.1 µM: screening concentration 0.1 μM; for inhibition at 10 µM: screening concentration 10 μM
T3 construct: screened for activity against several kinases in Jurkat cells; endogenous in cells; host or cells: Jurkat cell lysate
T3 sequence (Q9UL54 1-1235): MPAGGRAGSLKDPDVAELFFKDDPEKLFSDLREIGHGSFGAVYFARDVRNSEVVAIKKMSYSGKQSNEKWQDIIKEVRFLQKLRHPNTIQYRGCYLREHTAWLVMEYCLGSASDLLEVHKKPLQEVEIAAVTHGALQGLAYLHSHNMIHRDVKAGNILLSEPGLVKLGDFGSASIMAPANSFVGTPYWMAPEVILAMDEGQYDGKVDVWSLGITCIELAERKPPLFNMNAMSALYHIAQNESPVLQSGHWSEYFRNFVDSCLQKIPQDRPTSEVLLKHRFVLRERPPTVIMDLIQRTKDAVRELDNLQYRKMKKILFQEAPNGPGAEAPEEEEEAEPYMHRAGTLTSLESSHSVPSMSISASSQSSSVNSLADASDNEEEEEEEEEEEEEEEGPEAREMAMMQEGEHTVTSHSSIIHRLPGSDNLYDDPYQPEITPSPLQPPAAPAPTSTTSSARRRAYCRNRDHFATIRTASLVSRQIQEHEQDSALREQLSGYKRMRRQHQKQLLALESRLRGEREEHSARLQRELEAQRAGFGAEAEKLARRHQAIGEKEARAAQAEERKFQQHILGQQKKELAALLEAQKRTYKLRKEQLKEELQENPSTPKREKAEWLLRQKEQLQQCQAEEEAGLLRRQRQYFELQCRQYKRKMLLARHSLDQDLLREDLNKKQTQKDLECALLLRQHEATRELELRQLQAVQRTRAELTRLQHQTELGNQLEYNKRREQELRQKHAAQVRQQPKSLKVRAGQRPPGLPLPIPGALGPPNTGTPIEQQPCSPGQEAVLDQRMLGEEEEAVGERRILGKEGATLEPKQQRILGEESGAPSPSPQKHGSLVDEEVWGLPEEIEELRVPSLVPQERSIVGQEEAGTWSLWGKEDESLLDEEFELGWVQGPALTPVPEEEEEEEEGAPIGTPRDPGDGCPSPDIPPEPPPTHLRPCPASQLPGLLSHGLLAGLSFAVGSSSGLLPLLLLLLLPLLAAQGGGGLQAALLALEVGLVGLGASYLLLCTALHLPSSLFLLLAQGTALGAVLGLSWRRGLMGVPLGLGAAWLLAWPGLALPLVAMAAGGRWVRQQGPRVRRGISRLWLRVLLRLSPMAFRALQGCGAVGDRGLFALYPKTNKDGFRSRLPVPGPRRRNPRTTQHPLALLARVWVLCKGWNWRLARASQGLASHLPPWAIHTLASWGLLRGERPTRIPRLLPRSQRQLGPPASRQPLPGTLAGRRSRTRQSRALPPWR
Method in brief: as §1

AurB or AurC = test: Probe-based (AX9989) kinase profiling in Jurkat lysate: AurB or AurC
Method in brief: as §1

ACK = molecular target: T4, ACK (Homo sapiens, UniProt Q07912); test: Probe-based (AX9989) kinase profiling in Jurkat lysate: ACK; conditions: for inhibition at 0.1 µM: screening concentration 0.1 μM; for inhibition at 10 µM: screening concentration 10 μM
T4 construct: screened for activity against several kinases in Jurkat cells; endogenous in cells; host or cells: Jurkat cell lysate
Method in brief: as §1

ERK5 = molecular target: T5, ERK5 (Homo sapiens, UniProt Q13164); test: Probe-based (AX9989 acyl phosphate ATP probe) kinase profiling in Jurkat lysate: ERK5; conditions: for IC50: Jurkat lysate; for inhibition at 0.1 µM: screening concentration 0.1 μM; for inhibition at 10 µM: screening concentration 10 μM
T5 construct: screened for activity against several kinases in Jurkat cells; endogenous in cells; host or cells: Jurkat cell lysate
Method in brief: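 ERK5 IC50 values came from percent inhibition at the screening concentration, measured as loss of LC/MS signal of probe-labelled active-site peptides. Compound was added for 15 min at room temperature to Jurkat lysate (5 mg/ml, 20 mM MnCl2) before labelling with AX9989 ATP acyl phosphate probe at 5 μM.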

[2] = screening concentration 1.0 μM, read-out: Kinase inhibition % at indicated screening concentration: JAK1
[3] = screening concentration 1.0 μM, read-out: Kinase inhibition % at indicated screening concentration: TAO2
[4] = screening concentration 1.0 μM, read-out: Kinase inhibition % at indicated screening concentration: ACK
[5] = calculated from percent inhibition of AX9989 labeling and the screening concentration
[6] = screening concentration 1.0 μM, read-out: Kinase inhibition % at indicated screening concentration: ERK5
[7] = read-out: Kinase inhibition % at indicated screening concentration: JAK1
[8] = read-out: Kinase inhibition % at indicated screening concentration: TAO2
[9] = read-out: Kinase inhibition % at indicated screening concentration: ACK
[10] = read-out: Kinase inhibition % at indicated screening concentration: ERK5
[11] = read-out: JAK1 Inhibition % at indicated screening concentration
[12] = read-out: TAO2 Inhibition % at indicated screening concentration
[13] = read-out: ACK Inhibition % at indicated screening concentration
[14] = calculated from percent inhibition and screening concentration, AX9989 probe
[15] = read-out: ERK5 Inhibition % at indicated screening concentration

T5 sequence (Q13164 whole entry): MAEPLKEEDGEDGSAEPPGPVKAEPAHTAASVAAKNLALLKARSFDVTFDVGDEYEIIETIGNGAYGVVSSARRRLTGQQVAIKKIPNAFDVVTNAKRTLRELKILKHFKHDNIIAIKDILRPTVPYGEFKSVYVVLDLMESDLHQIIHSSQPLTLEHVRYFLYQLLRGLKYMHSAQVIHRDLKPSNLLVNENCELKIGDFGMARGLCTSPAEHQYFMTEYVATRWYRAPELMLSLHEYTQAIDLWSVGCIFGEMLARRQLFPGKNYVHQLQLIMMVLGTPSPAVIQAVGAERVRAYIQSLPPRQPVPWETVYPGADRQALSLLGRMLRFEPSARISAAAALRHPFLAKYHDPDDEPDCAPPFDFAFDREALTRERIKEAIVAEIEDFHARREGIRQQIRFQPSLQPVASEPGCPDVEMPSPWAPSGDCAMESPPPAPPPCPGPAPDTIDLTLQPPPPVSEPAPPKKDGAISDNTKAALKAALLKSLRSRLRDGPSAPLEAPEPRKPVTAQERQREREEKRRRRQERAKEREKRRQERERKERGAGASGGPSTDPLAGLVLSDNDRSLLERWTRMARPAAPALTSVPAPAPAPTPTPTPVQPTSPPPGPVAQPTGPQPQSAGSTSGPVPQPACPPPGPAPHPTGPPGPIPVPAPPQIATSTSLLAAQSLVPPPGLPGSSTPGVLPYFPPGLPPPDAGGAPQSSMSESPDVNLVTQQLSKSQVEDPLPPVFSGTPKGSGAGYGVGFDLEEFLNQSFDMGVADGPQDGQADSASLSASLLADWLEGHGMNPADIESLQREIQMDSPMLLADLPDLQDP
T2 sequence (P23458 whole entry): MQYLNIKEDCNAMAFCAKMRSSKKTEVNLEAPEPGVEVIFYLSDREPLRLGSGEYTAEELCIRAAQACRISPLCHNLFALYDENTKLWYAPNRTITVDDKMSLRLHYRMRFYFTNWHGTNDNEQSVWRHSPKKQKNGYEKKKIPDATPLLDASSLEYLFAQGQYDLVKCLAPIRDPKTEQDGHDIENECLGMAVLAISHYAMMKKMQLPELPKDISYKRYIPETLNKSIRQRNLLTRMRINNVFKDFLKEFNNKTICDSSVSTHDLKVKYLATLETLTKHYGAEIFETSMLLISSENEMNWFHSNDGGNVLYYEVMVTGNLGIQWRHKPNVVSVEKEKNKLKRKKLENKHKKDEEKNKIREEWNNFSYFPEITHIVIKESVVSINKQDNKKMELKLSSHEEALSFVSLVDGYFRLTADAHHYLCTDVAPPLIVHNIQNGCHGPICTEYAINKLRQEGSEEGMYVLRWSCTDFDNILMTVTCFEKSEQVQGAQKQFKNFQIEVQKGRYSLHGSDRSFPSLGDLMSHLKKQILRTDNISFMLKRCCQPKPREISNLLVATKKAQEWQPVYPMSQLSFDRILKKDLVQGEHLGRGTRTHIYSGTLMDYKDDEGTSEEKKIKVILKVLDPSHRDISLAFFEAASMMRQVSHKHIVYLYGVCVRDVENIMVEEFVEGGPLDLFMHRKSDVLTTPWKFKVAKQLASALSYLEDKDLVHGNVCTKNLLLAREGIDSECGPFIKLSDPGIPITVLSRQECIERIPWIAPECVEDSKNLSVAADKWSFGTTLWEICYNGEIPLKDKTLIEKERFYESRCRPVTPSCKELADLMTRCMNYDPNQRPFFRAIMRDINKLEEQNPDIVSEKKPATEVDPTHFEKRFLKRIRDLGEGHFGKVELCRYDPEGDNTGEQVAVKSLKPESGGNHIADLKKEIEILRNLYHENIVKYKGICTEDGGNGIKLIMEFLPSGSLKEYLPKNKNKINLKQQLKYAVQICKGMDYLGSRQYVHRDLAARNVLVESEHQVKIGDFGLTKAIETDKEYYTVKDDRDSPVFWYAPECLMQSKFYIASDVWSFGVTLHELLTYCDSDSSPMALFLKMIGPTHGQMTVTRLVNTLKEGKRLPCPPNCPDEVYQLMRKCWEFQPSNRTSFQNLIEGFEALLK
T4 sequence (Q07912 whole entry): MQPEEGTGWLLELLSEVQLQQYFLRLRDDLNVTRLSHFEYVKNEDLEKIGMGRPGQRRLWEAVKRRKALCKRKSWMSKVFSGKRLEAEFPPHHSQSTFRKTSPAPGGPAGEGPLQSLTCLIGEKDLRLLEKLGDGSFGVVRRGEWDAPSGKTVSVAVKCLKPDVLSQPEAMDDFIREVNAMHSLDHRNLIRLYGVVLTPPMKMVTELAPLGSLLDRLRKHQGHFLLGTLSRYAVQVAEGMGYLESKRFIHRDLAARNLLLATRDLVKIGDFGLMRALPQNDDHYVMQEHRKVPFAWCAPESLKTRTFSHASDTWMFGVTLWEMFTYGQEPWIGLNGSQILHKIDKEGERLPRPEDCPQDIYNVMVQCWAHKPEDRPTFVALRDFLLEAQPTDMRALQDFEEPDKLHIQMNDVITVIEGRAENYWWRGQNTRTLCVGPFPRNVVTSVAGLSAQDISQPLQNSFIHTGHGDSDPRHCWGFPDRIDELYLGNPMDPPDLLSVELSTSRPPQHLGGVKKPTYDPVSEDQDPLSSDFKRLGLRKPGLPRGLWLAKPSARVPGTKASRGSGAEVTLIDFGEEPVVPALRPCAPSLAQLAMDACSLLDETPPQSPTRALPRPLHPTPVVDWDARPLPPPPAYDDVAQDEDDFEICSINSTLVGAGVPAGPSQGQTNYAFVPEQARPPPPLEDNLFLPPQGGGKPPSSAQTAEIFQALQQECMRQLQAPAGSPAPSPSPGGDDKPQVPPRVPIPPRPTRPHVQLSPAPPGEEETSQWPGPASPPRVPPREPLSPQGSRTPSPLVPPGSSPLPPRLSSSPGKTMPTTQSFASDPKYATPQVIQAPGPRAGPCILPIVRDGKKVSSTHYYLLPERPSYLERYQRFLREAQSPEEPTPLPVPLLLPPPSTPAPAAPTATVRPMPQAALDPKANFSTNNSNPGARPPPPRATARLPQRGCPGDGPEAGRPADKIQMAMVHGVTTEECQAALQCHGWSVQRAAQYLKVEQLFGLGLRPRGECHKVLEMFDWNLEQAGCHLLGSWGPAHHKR

Row | SMILES | inhibition at 10 µM [1] [%] | inhibition at 1 µM (JAK1; [2]) [%] | inhibition at 1 µM (TAO2; [3]) [%] | Kinase inhibition % at indicated screening concentration: AurB or AurC (AurB or AurC; screening concentration 1.0 μM) | inhibition at 1 µM (ACK; [4]) [%] | IC50 (ERK5; [5]) [nM] | inhibition at 1 µM (ERK5; [6]) [%] | inhibition at 0.1 µM (JAK1; [7]) [%] | inhibition at 0.1 µM (TAO2; [8]) [%] | Kinase inhibition % at indicated screening concentration: AurB or AurC (AurB or AurC; screening concentration 0.1 μM) | inhibition at 0.1 µM (ACK; [9]) [%] | inhibition at 0.1 µM (ERK5; [10]) [%] | also measured
1 | CCOc1cc(C(=O)N2CCN(CCOCCO)CC2)ccc1Nc1cc2c(cn1)N(C)C(=O)c1ccccc1N2C [Compound 6] | > 85 | ≤ 35 | ≤ 35 | E (E is ≦35%) | ≤ 35 | ≤ 50 | > 90 | – | – | – | – | – | –
2 | CCOc1cc(C(=O)N2CCCN(C)CC2)ccc1Nc1cc2c(cn1)N(C)C(=O)c1ccccc1N2C [Compound 8] | 70 to 85 | ≤ 35 | ≤ 35 | E (E is ≦35%) | ≤ 35 | 101 to 500 | > 90 | – | – | – | – | – | –
3 | CCOc1cc(C(=O)N2CCN(CC3CC3)CC2)ccc1Nc1cc2c(cn1)N(C)C(=O)c1ccccc1N2C [Compound 10] | 70 to 85 | – | – | – | – | ≤ 50 | – | ≤ 35 | ≤ 35 | E (E is ≦35%) | ≤ 35 | 75 to 90 | –
4 | CCOc1cc(C(=O)N2CCC(N3CCCC3)CC2)ccc1Nc1cc2c(cn1)N(C)C(=O)c1ccccc1N2C [Compound 46, 3-(2-Ethoxy-4-(4-(pyrrolidin-1-yl)piperidine-1-carbonyl)phenylamino)-5,11-dimethyl-5H-benzo[e]pyrido[3,4-b][1,4]diazepin-10(11H)-one] | > 85 | ≤ 35 | ≤ 35 | E (E is ≦35%) | ≤ 35 | ≤ 50 | > 90 | – | – | – | – | – | –
5 | Cc1cc(CN2CC[C@@H](N3CCCC3)C2)ccc1Nc1cc2c(cn1)N(C)C(=O)c1ccccc1N2C [Compound 49] | > 85 | – | – | – | – | ≤ 50 | – | ≤ 35 | ≤ 35 | E (E is ≦35%) | ≤ 35 | > 90 | –
6 | CCOc1cc(C(N)=O)ccc1Nc1cc2c(cn1)N(C)C(=O)c1ccccc1N2C [Compound 51] | < 70 | – | – | – | – | 101 to 500 | – | ≤ 35 | ≤ 35 | E (E is ≦35%) | ≤ 35 | 35 to 50 | –
7 | CCOc1cc(C(=O)N2CCC(O)CC2)ccc1Nc1cc2c(cn1)N(C)C(=O)c1ccccc1N2C [Compound 52] | 70 to 85 | ≤ 35 | ≤ 35 | E (E is ≦35%) | ≤ 35 | 50 to 100 | > 90 | – | – | – | – | – | –
8 | CN1C(=O)c2occc2N(C)c2cc(N[C@H]3CC[C@H](N)CC3)ncc21 [Compound 53] | 70 to 85 | ≤ 35 | ≤ 35 | E (E is ≦35%) | ≤ 35 | 101 to 500 | 75 to 90 | – | – | – | – | – | –
9 | CCOc1cc(C(=O)NCCCN(CC)CC)ccc1Nc1cc2c(cn1)N(C)C(=O)c1ccccc1N2C [Compound 54] | > 85 | ≤ 35 | ≤ 35 | E (E is ≦35%) | ≤ 35 | 101 to 500 | 75 to 90 | – | – | – | – | – | –
10 | CCOc1cc(C(=O)NCCN(C(C)C)C(C)C)ccc1Nc1cc2c(cn1)N(C)C(=O)c1ccccc1N2C [Compound 55] | 70 to 85 | – | – | – | – | ≤ 50 | – | ≤ 35 | ≤ 35 | E (E is ≦35%) | ≤ 35 | 50 to 75 | –
11 | CCOc1cc(C(=O)N2CCC(N3CCN(C)CC3)CC2)ccc1Nc1cc2c(cn1)N(C)C(C(F)(F)F)c1ccccc1N2C (stereo not shown) [Compound T47] | – | – | – | – | – | – | – | – | – | – | – | – | inhibition at 10 µM (JAK1; [11]): ≤ 35%; inhibition at 10 µM (TAO2; [12]): ≤ 35%; AurB or AurC Inhibition % at indicated screening concentration (AurB or AurC; screening concentration 10 μM): E (E is ≦35%); inhibition at 10 µM (ACK; [13]): ≤ 35%; IC50 (ERK5; [14]): > 500 nM; inhibition at 10 µM (ERK5; [15]): 50 to 75%
12 | CCOc1cc(C(=O)N2CCC(NCCF)C2)ccc1Nc1cc2c(cn1)N(C)C(C(F)(F)F)c1ccccc1N2C (stereo not shown) [Compound T54] | – | – | – | – | – | – | – | – | – | – | – | – | inhibition at 10 µM (JAK1; [11]): ≤ 35%; inhibition at 10 µM (TAO2; [12]): ≤ 35%; AurB or AurC Inhibition % at indicated screening concentration (AurB or AurC; screening concentration 10 μM): E (E is ≦35%); inhibition at 10 µM (ACK; [13]): ≤ 35%; IC50 (ERK5; [14]): > 500 nM; inhibition at 10 µM (ERK5; [15]): 50 to 75%
13 | CCOc1cc(C(=O)N[C@H]2CC[C@@H](O)CC2)ccc1Nc1cc2c(cn1)N(C)C(=O)c1ccccc1N2C [Compound T63] | – | – | – | – | – | – | – | – | – | – | – | – | inhibition at 1 µM (JAK1; screening concentration 1 μM, read-out: JAK1 Inhibition % at indicated screening concentration): ≤ 35%; inhibition at 1 µM (TAO2; screening concentration 1 μM, read-out: TAO2 Inhibition % at indicated screening concentration): ≤ 35%; AurB or AurC Inhibition % at indicated screening concentration (AurB or AurC; screening concentration 1 μM): E (E is ≦35%); inhibition at 1 µM (ACK; screening concentration 1 μM, read-out: ACK Inhibition % at indicated screening concentration): ≤ 35%; IC50 (ERK5; [14]): 101 to 500 nM; inhibition at 1 µM (ERK5; screening concentration 1 μM, read-out: ERK5 Inhibition % at indicated screening concentration): 75 to 90%
